Measurements reported in the supplement of paper PMC10307832.

Key:
Experiment in all cases: relative viability (nuclei count vs DMSO), 5 days (fraction); higher = more cells survive
[1] = compound: CCn1c(-c2nonc2N)nc2c(C#CC(C)(C)O)ncc(OC[C@H]3CCCNC3)c21 + CC1(C)CCC(c2ccc(Cl)cc2)=C(CN2CCN(c3ccc(C(=O)NS(=O)(=O)c4ccc(N[C@H](CCN5CCOCC5)CSc5ccccc5)c(S(=O)(=O)C(F)(F)F)c4)cc3)CC2)C1 [Navitoclax] (partner 0.5 µM)
Procedure, shortened: (§1)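 Relative viability equals treated-well nuclei counts divided by vehicle-well nuclei counts. Counts came from 4× images of lung cancer cell lines grown in 1536-well plates for 5 days after pin-tool dosing on the day after seeding. Dosing used one drug alone or a fixed anchor-drug dose plus five library-drug doses (not always all listed) in √10 steps, and values are medians of duplicate plates.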

[2] = compound: CCn1c(-c2nonc2N)nc2c(C#CC(C)(C)O)ncc(OC[C@H]3CCCNC3)c21 + CC(=O)Nc1cccc(-n2c(=O)n(C3CC3)c(=O)c3c(Nc4ccc(I)cc4F)n(C)c(=O)c(C)c32)c1 [Trametinib] (partner 0.02 µM)
Procedure, shortened: as §1

[3] = compound: CCOC1=CC=CC=C1N=NC2=C(NN(C2=O)C3=NC(=CS3)C4=CC=CC=C4)C [BAM7] + COc1cc2c(Oc3ccc(NC(=O)C4(C(=O)Nc5ccc(F)cc5)CC4)cc3F)ccnc2cc1OCCCN1CCOCC1 [Foretinib] (partner 0.25 µM)
Procedure, shortened: as §1

[4] = compound: CCOC1=CC=CC=C1N=NC2=C(NN(C2=O)C3=NC(=CS3)C4=CC=CC=C4)C [BAM7] + O=C(CCCCCCC(=O)Nc1ccccc1)NO [Vorinostat] (partner 1 µM)
Procedure, shortened: as §1

| Cell Line | relative viability ([1]; first compound 0.01 µM) | relative viability ([1]; first compound 0.03162 µM) | relative viability ([1]; first compound 0.1 µM) | relative viability ([1]; first compound 0.3162 µM) | relative viability ([1]; first compound 1 µM) | relative viability ([2]; first compound 0.01 µM) | relative viability ([2]; first compound 0.03162 µM) | relative viability ([2]; first compound 0.1 µM) | relative viability ([2]; first compound 0.3162 µM) | relative viability ([2]; first compound 1 µM) | relative viability ([3]; first compound 0.5 µM) | relative viability ([3]; first compound 5 µM) | relative viability ([3]; first compound 15.81 µM) | relative viability ([3]; first compound 50 µM) | relative viability ([4]; first compound 0.5 µM) | relative viability ([4]; first compound 5 µM) | relative viability ([4]; first compound 15.81 µM) | relative viability ([4]; first compound 50 µM) |
| --- | --- | --- | --- | --- | --- | --- | --- | --- | --- | --- | --- | --- | --- | --- | --- | --- | --- | --- |
| LXF-289 | 0.978 | 0.949 | 0.935 | 0.886 | 0.926 | 0.686 | 0.66 | 0.703 | 0.609 | 0.668 | 1.04 | 0.968 | 0.986 | 0.961 | 0.82 | 0.92 | 0.84 | 0.7 |
| NCI-H23 | 0.782 | 0.807 | 0.868 | 0.794 | 0.833 | 0.373 | 0.378 | 0.433 | 0.369 | 0.357 | 1.05 | 1.03 | 0.928 | 1.1 | 0.559 | 0.674 | 0.629 | 0.792 |
| NCI-H358 |  |  |  |  |  | 0.145 | 0.133 | 0.132 | 0.115 | 0.104 | 0.834 | 0.84 | 0.642 | 0.634 |  | 0.644 | 0.528 | 0.667 |
| NCI-H522 |  |  |  |  |  | 0.826 | 0.763 | 0.783 | 0.667 | 0.82 |  |  |  |  | 0.911 | 0.851 | 0.963 | 0.977 |
| NCI-H650 |  |  |  |  |  | 0.934 | 0.977 | 0.938 | 0.897 | 1.07 | 0.988 | 1.14 | 1 | 0.992 | 0.541 | 0.531 | 0.518 | 0.492 |
| NCI-H661 |  |  |  |  |  | 0.52 | 0.615 | 0.521 | 0.491 | 0.569 | 1.02 | 1.08 | 0.964 | 1.11 | 0.82 | 0.843 | 0.784 | 0.774 |
| NCI-H1299 | 1.04 | 1.06 | 1.02 | 1.03 | 1.08 |  |  |  |  |  | 1.07 | 1.18 | 1.08 | 1.11 |  |  |  |  |
| NCI-H1563 |  |  |  |  |  |  |  |  |  |  | 0.898 | 0.82 | 0.868 | 0.963 |  |  |  |  |
| NCI-H1623 |  |  |  |  |  |  |  |  |  |  | 0.905 | 0.831 | 0.689 | 0.786 |  |  |  |  |
| NCI-H1648 |  |  |  |  |  | 0.46 | 0.474 | 0.481 | 0.417 | 0.418 |  |  |  |  | 0.283 | 0.6 | 0.408 | 0.348 |
| NCI-H1703 | 1.12 | 0.959 | 0.857 | 1.04 | 0.505 |  |  |  |  |  | 0.329 | 0.42 | 0.393 | 0.326 |  |  |  |  |
| NCI-H1792 | 0.722 | 0.501 | 0.619 | 0.62 | 0.604 | 0.472 | 0.424 | 0.504 | 0.344 | 0.387 |  |  |  |  |  |  |  |  |
| NCI-H2342 |  |  |  |  |  | 0.845 | 0.848 | 0.87 | 0.941 | 0.957 | 1.01 | 1.04 | 0.921 | 1.03 | 0.72 | 0.736 | 0.709 | 0.8 |
| SW 900 |  |  |  |  |  | 0.635 | 0.798 | 0.762 | 0.545 | 0.891 | 0.933 | 0.755 | 0.774 | 0.863 |  | 0.461 |  | 0.589 |
